Patent US4582851A, “Anti-bacterial 1,4-aminoalkylamino-9H-thioxanthen-9-one derivatives, compositions, and method of use therefor” (Warner-Lambert Company, priority 1985, dated 1986)
pIC50: −log10 of the molar value. Counter-ions that a name gives are not always drawn. Values belong to the compound of their own block, whether it stands above or below them.

Experiments:
[1] = test system: P-388 lymphocytic leukemia; conditions: cited from earlier work
P388 = conditions: cited from earlier work
A. Viscolacti = test: Inhibitory zone diameter, agar disc assay, A. viscolacti; assay type: cell-based; conditions: read-out: Inhibitory Zone Diameter, A. viscolacti
Experimental: (§1) 1. Preparation of inocula
(§2) The bacterial and yeast isolates are maintained in agar slants or in liquid media, hereby designated as inoculum media. The cultures are transferred at regular intervals in such media. (See Table for the corresponding inoculum media of each culture.) The organisms are generally transferred on to agar slants or liquid inoculum media and incubated overnight (18-20 hours): 37° C. for the bacterial isolates and 28° C. for the fungal cultures.
(§3) The microbial cells from the overnight agar slants are then scraped off and suspended in saline solution (0.85% NaCl). The microbial concentrations are adjusted to a light transmittancy of 20-35%, Junior Coleman Spectrophotometer (555M). For the organisms that are maintained in liquid media, an aliquot of the culture suspension is simply diluted with saline to 20-35% light transmittancy.
(§4) The above microbial suspension serve as inocula for the assay plates. Thus, 0.16-10 ml (see Table for exact amount) are used to inoculate 100 ml of the molten-agar assay medium.
(§5) Stainless steel frames, 12.3×25.3 cm (ID) and glass plates, 15.3×31.7 cm are used to make the test trays. The frames are attached to the plates with tape at each end and the inner edges sealed with 2% agar. Twenty five ml of inoculated assay medium is spread evenly on each tray and allowed to solidify. The trays are covered, inverted, and refrigerated until used.
(§6) The compounds or samples to be tested are dissolved in suitable solvents, e.g., alcohols, dimethylsulfoxide, or N,N-dimethylformamide. The samples are generally dissolved so that the final concentration of the solvent is <10%.* The compounds are tested at different concentrations: 3,000; 1,000; 500; 100; and 10 mcg/ml. Paper discs (12.7 mm diameter) are placed on the agar trays with forceps, then 0.08 ml of the dissolved compound is pipetted onto each disc using a 0.2 ml pipette.
(§7) The disked agar trays are incubated overnight (18-20 hours) at 37° C. for the bacterial cultures and 28° C. for the yeasts. […] The diameter of the zone is measured in mm. […]

E. coli = test: Inhibitory zone diameter, agar disc assay, E. coli; assay type: cell-based, Escherichia coli
Experimental: as §1, §2, §3, §4, §5, §6, §7

N. Catarrhali = test: Inhibitory zone diameter, agar disc assay, N. catarrhali; assay type: cell-based; conditions: Conc. 100 (mg/ml)
Experimental: as §1, §2, §3, §4, §5, §6, §7

B. Subtilis = test: Inhibitory zone diameter, agar disc assay, B. subtilis; assay type: cell-based; conditions: Bacillus subtilis; for zone of inhibition at 100 µg/mL: Conc. 100 (mg/ml)
Experimental: as §1, §2, §3, §4, §5, §6, §7

S. Faeculic = test: Inhibitory zone diameter, agar disc assay, S. faecalis; assay type: cell-based, Streptococcus faecalis; conditions: Enterococcus faecalis
Experimental: as §1, §2, §3, §4, §5, §6, §7

[2] = test system: lymphocytic leukemia P388; test: P388 in vivo lymphocytic leukemia test; set-up: species or system male or female CD2 F1 mice; conditions: for P388 in vivo T/C × 100: two single doses, four-day interval; for Number of animals surviving 30 days and considered "cured": six to seven animals per group
Experimental: The in vivo lymphocytic leukemia P388 test is carried out by the United States National Cancer Institute. The animals used are either male or female CD2 F1 mice. There are six to seven animals per test group. The tumor transplant is by intraperitoneal injection of dilute ascitic fluid containing cells of lymphocytic leukemia P388. The test compounds are administered intraperitoneally in two single doses with a four-day interval between doses at various dose levels following tumor inoculation. The animals are weighed and survivors are recorded on a regular basis for 30 days. A ratio of survival time for treated (T)/control (C) animals is calculated. The criterion for efficacy is T/C×100>125%. The positive control compound in this test is 1,4-dihydroxy-5,8-[bis[[2-[(2-hydroxyethyl)amino]-ethyl]]amino]-9,10-anthracenedione given at dosages ranging from 12.0 to 0.075 mg/kg. See Cancer Chemotherapy Reports, Part 3, 3, 1 (1972) for a comprehensive discussion of the protocol.

[3] = test system: HCT-8 (human colon adenocarcinoma) cells; test: HCT-8 in vitro (human colon adenocarcinoma); assay type: cell-based; conditions: 60-65 hrs at 37° C., read-out: HCT-8 in vitro ID50
Experimental: In addition to their usefulness as antibiotic and antifungal agents and as antileukemic agents, certain of the compounds of the invention display in vitro activity against solid tumors when tested by the following procedure.
HCT-8 (human colon adenocarcinoma) cells are trypsinized using Trypsin-EDTA. A single cell suspension is achieved by passing the cells through a 26 gauge needle with a 20 cc syringe. A cell suspension is prepared using RPMI 1640 growth medium (available from Gibco Laboratories)+10% fetal calf serum+50 μg/ml garamycin with a cell concentration of approximately 30,000 cells/ml. The cell suspension is dispensed in Linbro 24-well plates; 1 ml/well. The plates are incubated for approximately 48 hrs at 37° C. in a 5% CO2 atmosphere. At this time test compounds are added in the appropriate concentration. Five μl of the 200 μg/ml stock solution is added to each well in a primary test. Ten μl of the appropriate dilution is added to each well for a titration test. The plates are reincubated an additional 60-65 hrs at 37° C. in a 5% CO2 atmosphere. The test is read by lysing the cells using a mix of cationic surfactant, glacial acetic acid and sodium chloride. Two ml of the lysed cell suspension from each well is added to 8 ml of diluent. Each sample is read with a Coulter counter (ZBI model). The activity of each sample is measured as a percentage of the controls and the data is reported as ID50, that is the molar quantity of drug required to kill 50% of the tumor cells.

L1210 cells = test: L1210 in vitro (murine leukemia cell growth); assay type: cell-based; conditions: Mus musculus, L1210, 72 h; 3 days, 37° C., 5% CO2; read-out: L1210 in vitro ID50
Experimental: A test protocol uses L1210 cells, a murine leukemia cell line, grown in RPMI 1640 supplemented with 5% fetal bovine serum and gentamicin (50 μg/ml). Drug dilutions are prepared in the appropriate solvent and 20 μl of each dilution are added to 24-well Linbro tissue culture plates, followed by the addition of 2.0 ml of cell suspension containing 3×10^4 cells per ml. Solvent and medium controls are included in each test. After incubation at 37° C. for three days in 5% CO2, the contents of each well are removed and the cells counted in a ZBI Coulter counter. Percent growth are calculated relative to the controls and the levels of drug activity are expressed as ID50 in moles per liter.

tumor = conditions: cited from earlier work
[4] = 12.5 mg/kg i.p. (printed 125 for Example 1)

SMILES: Cc1ccc(NCCNCCO)c2c(=O)c3ccccc3sc12
activity against the P-388 lymphocytic leukemia [1]: inactive

SMILES: Cc1ccc(NCCN(C)C)c2c(=O)c3ccccc3sc12
activity against the P-388 lymphocytic leukemia [1]: inactive

SMILES: CCN(CC)CCNc1ccc(C)c2sc3ccc(O)cc3c(=O)c12 [7-hydroxy analog of lucanthone]
in vivo P388 activity (P388): shown to have in vivo P388 activity

SMILES: CN(C)CCNc1ccc(NCCNCCO)c2sc3ccccc3c(=O)c12.Cl.Cl.Cl [Example 1, 1-[[2-(Dimethylamino)ethyl]amino]-4-[[2-[(2-hydroxyethyl)amino]ethyl]amino]-9H-thioxanthen-9-one trihydrochloride]
zone of inhibition at 100000 µg/mL (A. Viscolacti): 17 mm
zone of inhibition at 3 g/mL (E. coli; Escherichia coli, read-out: Inhibitory Zone Diameter, E. coli): 17 mm
zone of inhibition at 100 µg/mL (N. Catarrhali): 21 mm
zone of inhibition at 100 µg/mL (B. Subtilis): 19 mm
zone of inhibition at 1600 µg/mL (S. Faeculic; Conc. 1600 (mg/ml)): 19 mm
P388 in vivo T/C × 100 [2, 4]: 190%
P388 in vivo T/C × 100 ([2]; 25 mg/kg i.p.): 236%
Number of animals surviving 30 days and considered "cured" ([2]; 25 mg/kg i.p.): 1

SMILES: CCN(CC)CCNc1ccc(N)c2sc3ccccc3c(=O)c12 [Example 1c]
activity against the P-388 lymphocytic leukemia [1]: inactive

SMILES: CN(C)CCNc1ccc(NCCN)c2sc3ccccc3c(=O)c12 [Example 2, 4-[(2-Aminoethyl)amino]-1-[[2-(dimethylamino)ethyl]amino]-9H-thioxanthen-9-one, hydrochloride]
zone of inhibition at 100000 µg/mL (A. Viscolacti): 23 mm
zone of inhibition at 1000 µg/mL (E. coli; Escherichia coli, Conc. 1000 (mg/ml)): 14 mm
zone of inhibition at 100 µg/mL (N. Catarrhali): 20 mm
zone of inhibition at 100 µg/mL (B. Subtilis): 16 mm
zone of inhibition at 500 µg/mL (S. Faeculic; Conc. 500 (mg/ml)): 14 mm
P388 in vivo T/C × 100 [2, 4]: 187%
P388 in vivo T/C × 100 ([2]; 25 mg/kg i.p.): 212%
Number of animals surviving 30 days and considered "cured" ([2]; 25 mg/kg i.p.): 1

SMILES: CN(C)CCNc1ccc(NCCCN)c2sc3ccccc3c(=O)c12.Cl.Cl.Cl [Example 3, 4-[(3-Aminopropyl)amino]-1-[[2-(dimethylamino)ethyl]amino]-9H-thioxanthen-9-one, trihydrochloride]
zone of inhibition at 100000 µg/mL (A. Viscolacti): 14 mm
Inhibitory Zone Diameter, E. coli (E. coli; concentration not given): 0 mm
zone of inhibition at 100 µg/mL (N. Catarrhali): 24 mm
zone of inhibition at 1000 µg/mL (B. Subtilis; Conc. 1000 (mg/ml)): 16 mm
zone of inhibition at 3000 µg/mL (S. Faeculic; Conc. 3000 (mg/ml)): 18 mm
P388 in vivo T/C × 100 ([2]; 25 mg/kg i.p.): 125%

pIC50 [3]: 6.57
pIC50 (L1210 cells): 6.92
SMILES: CN(C)CCNc1ccc([N+](=O)[O-])c2sc3ccccc3c(=O)c12 [Example 4, 1-[[2-(dimethylamino)ethyl]amino]-4-nitro-9H-thioxanthen-9-one]

pIC50 [3]: 5.96
pIC50 (L1210 cells): 5.92
SMILES: CCN(CC)CCNc1ccc([N+](=O)[O-])c2sc3cc(OC)ccc3c(=O)c12 [Example 5 NH(CH2)2 NEt2 6-OMe]
P388 in vivo T/C × 100 ([2]; 100 mg/kg i.p.): 104%

pIC50 (L1210 cells): 8.19
SMILES: CN(C)CCNc1ccc([N+](=O)[O-])c2sc3ccc(O)cc3c(=O)c12 [Example 5 NH(CH2)2 NMe2 7-OH, 1-[[2-(Dimethylamino)ethyl]amino]-7-hydroxy-4-nitro-9H-thioxanthen-9-one]

pIC50 [3]: 6.00
pIC50 (L1210 cells): 6.60
SMILES: COc1ccc2sc3c([N+](=O)[O-])ccc(NCCN(C)C)c3c(=O)c2c1 [Example 5 NH(CH2)2 NMe2 7-OMe, 1-[[2-(Dimethylamino)ethyl]amino]-7-methoxy-4-nitro-9H-thioxanthen-9-one]
P388 in vivo T/C × 100 ([2]; 100 mg/kg i.p.): 178%

pIC50 [3]: 6.34
pIC50 (L1210 cells): 7.02
SMILES: CN(C)CCCNc1ccc([N+](=O)[O-])c2sc3ccccc3c(=O)c12 [Example 5 NH(CH2)3 NMe2 H, 1-[[3-(dimethylamino)propyl]amino]-4-nitro-9H-thioxanthen-9-one]
P388 in vivo T/C × 100 ([2]; 50 mg/kg i.p.): 190%

SMILES: CCN(CC)CCNc1ccc(CO)c2sc3ccccc3c(=O)c12 [hycanthone]
Experimental antitumor activity (tumor): Experimental antitumor activity has been reported

SMILES: CCN(CC)CCNc1ccc(C)c2sc3ccccc3c(=O)c12 [lucanthone]
Experimental antitumor activity (tumor): Experimental antitumor activity has been reported
